Patent US7326768B2, “Goodpasture antigen-binding protein isoforms and protein misfolded-mediated disorders” (priority 2003, dated 2008)
“Also recorded” adds a separate entry of the source.

What was measured:
[1] = test system: α3(IV)NC1-expressing cells (HEK293); assay: α3(IV)NC1 conformer production in cultured cells (Western blot of culture media); format: cell-based, human; settings: for α3(IV)NC1 conformer production in cultured cells: synthetic peptides 100-200 μM, organic compounds 5-50 μM, 24-48 h
NZW mice = assay: Degenerative glomerulopathy in NZW mice (histochemical studies of kidney); format: in vivo
C57BL/6 mice = assay: DAB-Am-4 treatment of control mice (genetic background control); format: in vivo; settings: C57BL/6 control mice
Procedure: Animal studies. NZW, male or female, 4-6 month-old were injected intraperitoneally either with 1 μg/g of body weight of DAB-Am-4 and/or with 20 μg/g of body weight of the Q2L or Q2D peptide. These products were administered in a volume of 500 μl of steril saline solution 3 times per week, at alternate days, during 12 consecutive weeks. Age-matched uninjected mice were used as controls. At the end of the experiment, mice were sacrificed and kidneys were fixed in 10% paraformaldehide and processed for pathological studies. Similar DAB-Am-4 treatment studies were performed on C57BL/6 animals for genetic background control.

recombinant human GPBP = molecular target: T1, recombinant human GPBP (Homo sapiens, UniProt Q9Y5P4); assay: In vitro phosphorylation: GPBP kinase activity / autophosphorylation; settings: for effect on GPBP autophosphorylation at decreasing concentrations: decreasing concentrations up to 10 μM; for GPBP kinase activity in vitro (autophosphorylation): modulators at 200 μM, 10 min autophosphorylation reaction
T1 sequence (Q9Y5P4 1-624): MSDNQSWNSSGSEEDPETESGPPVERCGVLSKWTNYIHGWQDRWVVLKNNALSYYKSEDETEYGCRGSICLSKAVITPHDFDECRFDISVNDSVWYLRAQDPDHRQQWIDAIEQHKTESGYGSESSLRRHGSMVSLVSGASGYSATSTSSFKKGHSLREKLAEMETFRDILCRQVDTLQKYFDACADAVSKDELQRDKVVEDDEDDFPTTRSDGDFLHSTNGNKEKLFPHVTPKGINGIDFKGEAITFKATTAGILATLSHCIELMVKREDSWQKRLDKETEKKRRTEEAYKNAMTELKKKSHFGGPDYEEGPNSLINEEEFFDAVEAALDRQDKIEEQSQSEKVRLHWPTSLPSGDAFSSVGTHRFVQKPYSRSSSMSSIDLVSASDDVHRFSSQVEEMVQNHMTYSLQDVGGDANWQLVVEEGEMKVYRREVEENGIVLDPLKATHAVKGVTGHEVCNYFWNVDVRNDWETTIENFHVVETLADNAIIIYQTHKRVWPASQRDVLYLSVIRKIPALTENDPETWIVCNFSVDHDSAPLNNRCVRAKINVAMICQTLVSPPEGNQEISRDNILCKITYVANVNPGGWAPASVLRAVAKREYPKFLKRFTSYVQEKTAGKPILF

GPBP-PrP^C complex = GPBP-PrP^C complex (Homo sapiens, UniProt Q9Y5P4); format: binding, bovine PrP^C
rat liver lysosomes = format: in vivo; settings: lysosomes from liver of leupeptin-treated vs untreated rats
Procedure: FIG. 6. Identification of 91-kDa GPBP isoform in rat liver lysosomes and evidence for processing to 44-47-kDa isoforms. In A, similar amounts (˜50 μg) of lysosomal fractions from liver of untreated (C) or leupeptin-treated (L) rats were analyzed by Western blot using Mab6 antibodies. In B, lysosomal fractions as in A were further fractioned and whole (W), soluble (S) or non-soluble (M) fractions were similarly analyzed.
Subcellular fractioning and related studies. Rat liver subcellular fractionation was essentially performed as indicated in Aniento, F., Roche, E., Cuervo, A. M., Knecht, E. (1993). J. Biol. Chem. 268, 10463-10470. For some purposes lysosomal fractions (freshly prepared entire lysosomes) were dispersed in pure water and subjected to ten consecutive cycles of freezing and thawing to alter lysosomal membrane integrity (broken lysosomes). For other purposes, lysosomal fractions were similarly disrupted in the presence of protease inhibitors (PMSF 2 mM, leupeptin 0.2 mM and EDTA 2 mM) and subsequently centrifuged 130,000×g for 10 min at room temp to separate the soluble lysosomal fraction (also called here lysosomal extract) from the non-soluble fraction which, after rinse with 0.3 M saccharose in 10 mM MOPS pH 7.2, was used as the lysosomal membrane fraction.

GPBP mRNA = assay: Silencing of GPBP expression in 293 cells (Western blot); format: cell-based, human; settings: 293 cells transfected with silencer plasmid
Procedure: FIG. 4. Cellular 91- and 120-kDa GPBP-related polypeptides are translation products of GPBP mRNA. Similar amounts (˜50 μg) of lysates from non-transfected 293 cells (1) or from 293 cells transfected with a plasmid encoding for SiGFP (2), SiGPBP (3), SiGPBP/Δ26-1 (4) SiGPBP/Δ26-2 (5), SiGPBP/Δ26-3 (6), SiGPBP/Δ26-4 (7) were analyzed by Western blot using the indicated antibodies.
SimRNA production. Silencers were generated using pSilencer 2.1-U6 hygro plasmid (Ambion) following manufacturers recommendations. The oligonucleotide pairs used were:
Recombinant protein expression in cultured cells. The pcDNA3-based contructs containing the cDNA encoding the different human proteins of interest were used to transfect human 293 cells using standard calcium phosphate procedures in ProFection Mammalian Transfection System (Promega). 24-48 h after transfection cell lysates were used for Western blot, precipitation or immunoprecipitation studies. Cells expressing GPBP or derived deletion mutants were collected on ice with 50 mM Tris HCl pH 7.4, 0.05% Triton X-100, 1 mM PMSF and 5 μg/ml leupeptin, disrupted by vortex and insoluble material discarded by centrifugation at 14.000 rpm in Eppendorf at 4° C. for 10 min and supernatant used for Western blot analysis.

GPBP = molecular target: T2, GPBP (Homo sapiens, UniProt Q9Y5P4); assay: Auto-phosphorylation of GPBP deletion mutant at pH 5; format: biochemical
T2 sequence (Q9Y5P4 1-299): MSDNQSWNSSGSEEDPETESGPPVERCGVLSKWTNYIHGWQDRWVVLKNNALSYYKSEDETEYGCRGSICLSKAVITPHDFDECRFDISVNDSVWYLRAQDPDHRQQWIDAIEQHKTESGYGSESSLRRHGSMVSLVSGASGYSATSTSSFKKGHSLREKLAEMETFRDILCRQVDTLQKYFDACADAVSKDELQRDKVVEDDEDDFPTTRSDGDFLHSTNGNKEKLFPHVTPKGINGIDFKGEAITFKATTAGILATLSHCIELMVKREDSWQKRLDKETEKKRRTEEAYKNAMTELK

`NCCCN(CCCN)CCCCN(CCCN)CCCN` [DAB-Am-4, polypropylenimine tetraamine dendrimer, reference compound] was tested, and the “α3(IV)NC1 conformer production in cultured cells” value [1] was “potent activator”, the “α3(IV)NC1 conformer production in cultured cells” value ([1]; listed as DAB-Am4) was “efficient increase in conformer production” and the “progression of the glomerulopathy” value (NZW mice; 4-6 month-old NZW, 1 μg/g i.p. 3 times per week, 12 weeks) was “acceleration of the degenerative process, resulting in premature glomerulosclerosis at 7-9 month of age”. For the same molecule, the “morphological pattern of disease progression” value (NZW mice; NZW, DAB-Am-4 treatment) was “progression through Stages 3b and 4b”, the histological changes (C57BL/6 mice) was “not observed histological changes of relevance” and the “effect on GPBP autophosphorylation at decreasing concentrations” value (recombinant human GPBP) was “activation”. For the same molecule, the “GPBP kinase activity in vitro (autophosphorylation)” value (shortened to “GPBP kinase activity in vitro”) (recombinant human GPBP) was “potent activator; also recorded: caused induction”.

In the case of `CN([C@@H](Cc1ccc(OS(=O)(=O)c2cccc3cnccc23)cc1)C(=O)N1CCN(c2ccccc2)CC1)S(=O)(=O)c1cccc2cnccc12` [KN62, 1-[N,O-bis-(5-Isoquinolinesulfonyl)-N-methyl-L-tyrosyl]-4-phenylpiperazine, reference compound], the “α3(IV)NC1 conformer production in cultured cells” value [1] is reported as “reduced cell conformer production” and the “GPBP kinase activity in vitro” value (recombinant human GPBP) is reported as “inhibited GPBP kinase activity in vitro to a larger extent than KN93”.

`Cl.N` [NH4Cl] was tested, and the “α3(IV)NC1 conformer production” value ([1]; 20 mM NH4Cl) was “reduced conformer production”.

In the case of `CC[C@@H](C)[C@@H](NC(=O)[C@@H](CS)NC(=O)[C@@H](Cc1c[nH]cn1)NC(=O)[C@@H](CO)NC(=O)[C@@H](CC(C)C)NC(=O)[C@H](NC(=O)[C@@H](C)NC(=O)[C@@H](CC(C)C)NC(C)=O)[C@H](C)O)C(=O)N[C@H](CCC(=O)O)C(=O)N[C@H](CC(C)C)C(=O)N[C@H](CCSC)C(=O)N[C@@H](C(=O)N[C@H](CCCCN)C(=O)N[C@H](CCCNC(=N)N)C(N)=O)C(C)C` [Q2D], the “GPBP-PrP^C complex formation” value (GPBP-PrP^C complex) is reported as “fully inhibited”, the “effect on GPBP autophosphorylation at decreasing concentrations” value (recombinant human GPBP) is reported as “inhibition” and the “GPBP kinase activity in vitro” value (recombinant human GPBP) is reported as “more efficient inhibiting”. For the same molecule, the “GPBP kinase activity in vitro” value (recombinant human GPBP; listed as D-amino acid version of Q2) was “more potent inhibitory activity”.

`CC[C@H](C)[C@H](NC(=O)[C@H](CS)NC(=O)[C@H](Cc1c[nH]cn1)NC(=O)[C@H](CO)NC(=O)[C@H](CC(C)C)NC(=O)[C@@H](NC(=O)[C@H](C)NC(=O)[C@H](CC(C)C)NC(C)=O)[C@@H](C)O)C(=O)N[C@@H](CCC(=O)O)C(=O)N[C@@H](CC(C)C)C(=O)N[C@@H](CCSC)C(=O)N[C@H](C(=O)N[C@@H](CCCCN)C(=O)N[C@@H](CCCNC(=N)N)C(N)=O)C(C)C` [Q2L] was tested, and the “GPBP-PrP^C complex formation” value (GPBP-PrP^C complex) was “efficiently inhibited”.

With `CC(=O)N[C@@H](CC(C)C)C(=O)N[C@@H](CC(C)C)C(=O)N[C@H](C=O)CCCNC(=N)N` [leupeptin] the “presence of α3(IV)NC1 proteolytic products” value [1] was “inhibited the presence of proteolytic products” and the “lysosomal GPBP immunoreactive polypeptides” value (rat liver lysosomes) was 44-47-kDa polypeptides significantly diminished.

For `CN[C@@H]1C[C@H]2O[C@@](C)([C@@H]1OC)n1c3ccccc3c3c4c(c5c6ccccc6n2c5c31)C(=O)NC4` [staurosporine, reference compound], the “GPBP kinase activity in vitro” value (recombinant human GPBP) was “efficiently impaired”.

In the case of Ac-EKTAGKPILF-OH [Q4], the “α3(IV)NC1 conformer production in cultured cells” value [1] is reported as “reduction in conformer production; also recorded: more limited inhibitory effect” and the “GPBP kinase activity in vitro” value (recombinant human GPBP) is reported as “inhibited GPBP autophosphorylation in a more limited manner; also recorded: poor inhibitor”.

“Ac-VLMASLETLCRIHKI-NH2 [Q2Lr, reference compound]” was tested, and the “GPBP-PrP^C complex formation” value (GPBP-PrP^C complex) was “no effect on complex formation”.

For “SiGPBP/Δ26-1: silencer of GPBP and/or GPBPΔ26 expression, SEQ ID NO:47 (AAACUACAUUCAUGGGUGGCA; listed as RNA, chemistry not given here)”, the “GPBP expression (endogenous 91- and 120-kDa GPBP)” value (from here on “GPBP expression”) (GPBP mRNA) was “diminish GPBP and/or GPBPΔ26 expression”.

For “SiGPBP/Δ26-2: silencer of GPBP and/or GPBPΔ26 expression, SEQ ID NO:48 (guide AAACAGAGUAUGGCUGCAGAG; listed as RNA, chemistry not given here)”, the “GPBP expression” value (GPBP mRNA) was “silenced endogenous GPBP more efficiently than SiGPBP/Δ26-4” and the “GPBP expression” value (GPBP mRNA; listed as siGPBPΔ26-2) was “diminish GPBP and/or GPBPΔ26 expression”.

“SiGPBP/Δ26-3: silencer of GPBP and/or GPBPΔ26 expression, SEQ ID NO:49 (guide AAGUACUUUGAUGCCUGUGCU; listed as RNA, chemistry not given here)” was tested, and the “GPBP expression” value (GPBP mRNA) was “diminish GPBP and/or GPBPΔ26 expression”.

With “SiGPBP/Δ26-4: silencer of GPBP and/or GPBPΔ26 expression, SEQ ID NO:50 (guide AAAGGCGUCACAGGACAUGAA; listed as RNA, chemistry not given here)” the “GPBP expression” value (GPBP mRNA) was “diminish GPBP and/or GPBPΔ26 expression”.

In the case of “SiGPBP: silencer of GPBP expression, SEQ ID NO:51 (AAGCCCUAUAGUCGCUCUUCC; listed as RNA, chemistry not given here)”, the “GPBP expression” value (GPBP mRNA) is reported as “diminish GPBP and/or GPBPΔ26 expression”.

B1: residues 1-299 of GPBP: C-terminal deletion mutant of GPBP with approximately 44-kDa molecular mass, SEQ ID NO:38 (protein)
chain: MSDNQSWNSSGSEEDPETESGPPVERCGVLSKWTNYIHGWQDRWVVLKNNALSYYKSEDETEYGCRGSICLSKAVITPHDFDECRFDISVNDSVWYLRAQDPDHRQQWIDAIEQHKTESGYGSESSLRRHGSMVSLVSGASGYSATSTSSFKKGHSLREKLAEMETFRDILCRQVDTLQKYFDACADAVSKDELQRDKVVEDDEDDFPTTRSDGDFLHSTNGNKEKLFPHVTPKGINGIDFKGEAITFKATTAGILATLSHCIELMVKREDSWQKRLDKETEKKRRTEEAYKNAMTELK
modifications: Derived sequence
In the case of B1, the auto-phosphorylation activity (GPBP) is reported as “greater auto-phosphorylation activity at pH 5 than full sized GPBP”.
